{
  "source": "patent US20090215895A1",
  "about": "“Therapeutic and carrier molecules” (PEPLIN BIOLIPIDS PTY LTD, priority 2004, published 2009)",
  "key": {"PKCβI [1]": {"target": "T1, PKCβI (Rattus norvegicus, UniProt P68403)", "T1 construct": "from tissue; host or cells: glomeruli of streptozotocin-diabetic male rats", "T1 sequence (P68403 whole entry)": "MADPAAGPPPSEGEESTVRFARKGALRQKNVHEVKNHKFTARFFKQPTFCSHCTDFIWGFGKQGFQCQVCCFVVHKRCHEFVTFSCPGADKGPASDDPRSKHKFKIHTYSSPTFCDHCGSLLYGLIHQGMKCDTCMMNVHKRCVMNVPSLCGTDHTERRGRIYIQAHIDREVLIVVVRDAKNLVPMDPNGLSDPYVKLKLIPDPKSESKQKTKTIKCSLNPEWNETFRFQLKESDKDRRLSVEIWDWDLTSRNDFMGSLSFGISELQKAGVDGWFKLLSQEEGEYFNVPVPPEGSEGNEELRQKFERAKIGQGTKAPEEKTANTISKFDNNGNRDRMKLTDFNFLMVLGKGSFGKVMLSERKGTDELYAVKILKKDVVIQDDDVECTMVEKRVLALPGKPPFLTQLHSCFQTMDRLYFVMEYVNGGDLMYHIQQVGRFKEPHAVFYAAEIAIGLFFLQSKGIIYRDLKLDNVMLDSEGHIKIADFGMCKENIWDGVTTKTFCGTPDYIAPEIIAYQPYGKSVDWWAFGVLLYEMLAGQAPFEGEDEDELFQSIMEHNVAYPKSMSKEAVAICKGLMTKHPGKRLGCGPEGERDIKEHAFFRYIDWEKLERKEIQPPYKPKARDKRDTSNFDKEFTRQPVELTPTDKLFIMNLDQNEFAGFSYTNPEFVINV", "assay": "PKCβ1 translocation in the glomeruli of streptozotocin-diabetic rats", "assay_type": "in vivo", "settings": "administered for 7 days after confirmation of diabetes", "experimental": "(§1) FIG. 9 is a diagrammatic representation showing the suppression of PKCβ1 translocation in glucose-stimulated mesangial cells (a) and in the glomeruli of a diabetic rat (b). Mesangial cells were pre-treated with MP5 or vehicle (ethanol) for 1 hr before being incubated with 25 mM glucose for 5 days. Male rats were rendered diabetic with streptozotocin and MP5 or vehicle (ethanol) was administered for 7 days after confirmation of diabetes. The cells and glomeruli were sonicated and particulate fraction-associated PKCβ1 was determined by Western blot analysis. High glucose and diabetes increased PKCβ1 in the particulate fraction."}, "PKCβI [2]": {"target": "T2, PKCβI (Homo sapiens, UniProt P05771)", "T2 construct": "endogenous in cells; host or cells: HUVEC (and unnamed other cell-types)", "T2 sequence (P05771 whole entry)": "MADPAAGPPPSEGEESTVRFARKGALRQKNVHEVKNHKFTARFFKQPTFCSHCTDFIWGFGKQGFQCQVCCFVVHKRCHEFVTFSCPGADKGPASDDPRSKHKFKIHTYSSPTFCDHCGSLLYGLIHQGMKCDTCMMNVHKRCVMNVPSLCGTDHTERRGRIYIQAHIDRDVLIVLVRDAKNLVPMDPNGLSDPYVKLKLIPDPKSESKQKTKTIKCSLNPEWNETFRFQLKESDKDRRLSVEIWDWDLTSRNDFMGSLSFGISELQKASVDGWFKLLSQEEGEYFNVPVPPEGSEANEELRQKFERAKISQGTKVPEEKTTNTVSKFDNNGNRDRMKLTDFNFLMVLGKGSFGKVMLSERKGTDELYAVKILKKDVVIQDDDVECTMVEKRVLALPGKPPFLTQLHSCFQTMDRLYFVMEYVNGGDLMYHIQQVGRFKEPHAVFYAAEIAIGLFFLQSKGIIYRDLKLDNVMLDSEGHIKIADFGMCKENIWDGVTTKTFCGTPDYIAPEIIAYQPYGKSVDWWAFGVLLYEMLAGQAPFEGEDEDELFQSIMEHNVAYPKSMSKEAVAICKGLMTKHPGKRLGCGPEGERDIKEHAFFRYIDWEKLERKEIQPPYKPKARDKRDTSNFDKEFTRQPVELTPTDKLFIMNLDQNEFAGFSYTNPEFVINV", "assay": "PMA-stimulated PKC translocation to the particulate fraction in HUVEC and other cell-types", "assay_type": "cell-based"}, "PKCβII": {"target": "T3, PKCβII (Homo sapiens, UniProt P05771)", "T3 construct": "endogenous in cells; host or cells: HUVEC (and unnamed other cell-types)", "T3 sequence (P05771 1-673 isoform P05771-2)": "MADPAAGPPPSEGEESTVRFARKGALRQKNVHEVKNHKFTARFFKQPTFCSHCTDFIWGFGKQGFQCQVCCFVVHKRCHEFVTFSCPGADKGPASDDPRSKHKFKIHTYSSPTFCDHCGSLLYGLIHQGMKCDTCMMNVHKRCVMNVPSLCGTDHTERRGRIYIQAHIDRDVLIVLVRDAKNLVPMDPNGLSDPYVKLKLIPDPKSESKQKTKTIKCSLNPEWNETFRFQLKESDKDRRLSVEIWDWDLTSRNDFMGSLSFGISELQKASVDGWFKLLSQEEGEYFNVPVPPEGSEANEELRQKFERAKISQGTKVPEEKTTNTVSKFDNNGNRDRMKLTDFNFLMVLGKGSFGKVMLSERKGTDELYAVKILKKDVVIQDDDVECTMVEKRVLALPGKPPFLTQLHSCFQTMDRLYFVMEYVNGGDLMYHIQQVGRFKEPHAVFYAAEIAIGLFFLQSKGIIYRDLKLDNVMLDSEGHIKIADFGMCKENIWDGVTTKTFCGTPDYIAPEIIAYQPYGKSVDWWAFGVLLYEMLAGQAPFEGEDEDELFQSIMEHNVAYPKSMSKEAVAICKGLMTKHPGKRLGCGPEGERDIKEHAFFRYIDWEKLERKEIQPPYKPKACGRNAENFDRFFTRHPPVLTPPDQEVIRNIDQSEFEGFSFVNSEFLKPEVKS", "assay": "PMA-stimulated PKC translocation to the particulate fraction in HUVEC and other cell-types", "assay_type": "cell-based", "experimental": "(§2) MP5 had minimal effects (<15%) on PKCε translocation and no effects on the translocation of the other PKC isozymes in Jurkat cells.\nMesangial cells express PKCα, βI, ε, δ and ζ (Koya et al, 1997 supra, Kikkawa et al, 1994 supra), and βII at lower levels (Koya et al, 1997 supra). To examine the effect of MP5 on the ability of other PKC isozymes in mesangial cells to translocate to the particulate fraction, the cells were pre-treated with MP5 before being stimulated with PMA (1-100 nM). This agent stimulated the translocation of all the classical and novel isozymes. […] The studies were extended to other isozymes. For PKCγ (expressed mainly by neuronal cells), the effect of MP5 are tested using PMA-stimulated PC12 rat pheochromocytoma cells. To assess the effect of MP5 on the activation of atypical PKC isozymes such as PKCζ NIH3T3 cells were pre-treated with MP5 before being stimulated with tumour necrosis factor ? (1000 U/ml) which stimulates PKCζ activity in these cells (Lallena et al, 1999 supra). The isozyme were immunoprecipitated (antibody from Santa Cruz) and kinase activity was determined using a PKCε pseudosubstrate peptide or myelin basic protein as a substrate (Suzuma et al, 2002 supra)."}, "[3]": {"assay": "Formalin-induced pain test (hind paw licking time)", "assay_type": "in vivo", "experimental": "Investigations of the effects of PT2 on pain induced by phenylquinolic acid (PQ writhing) and formalin have been made. In both the PQ writhing test (FIG. 3) and the formalin algesia test (FIG. 4), PT2 administered by intraperitoneal inoculation reduced pain and compared favourably with pain reduction by aspirin (oral, 100 mg/kg). In these tests, the EPUFA was administered 30 min before the pain stimulus and effects recorded over the following 20 min.\nInvestigations of PT2 in the formalin-induced analgesia model looking specifically at the biphasic response have also been undertaken and are shown in Table 1. It is well documented that in this model, aspirin suppresses only pain related to the inflammatory process (15-20 mins post-administration of formalin), while morphine suppresses pain in both phases of the response (0-5 min and 15-20 min).\nCompounds were administered intraperationedly (ip) 30 min prior to the administration of formalin (0.02 ml, 1% solution) via subplantar injection into the right hind paw. Reduction of the induced hind paw licking time recorded during the following 0-5 min period (Phase I response) or 15-20 min period (Phase II response) was determined. The data in Table 1 are the mean responses of 5 animals in each group."}, "HUVEC": {"system": "HUVEC", "assay": "Agonist-enhanced neutrophil adherence to HUVEC", "assay_type": "cell-based, human", "settings": "20 μmol/l, 1 hr pre-treatment, TNF 4 hr", "experimental": "FIG. 11 is a representation showing effect of β-oxa; β-thia and natural PUFA on TNF-enhanced neutrophil adherence to HUVEC. HUVEC were pre-treated with the fatty acids (20 μmol/l) for 60 min at 37° C. before being stimulated with TNF (125 U/200 μl medium) for 4 hr at 37° C. The cells were then co-incubated with neutrophils (5×10^5 cells/well) at 37° C. for 30 min and the degree of neutrophil adherence quantitated. The results are expressed as % of control and represent the mean±SEM of three separate experiments each performed in triplicate. * p<0.05, ***p<0.001, for significant differences between pre-treatment with fatty acid and control (one-way analysis of variance followed by the Dunnett test for multiple comparisons).\nAdhesion of neutrophils, prepared by the rapid-single-step method (Ferrante et al, J. Immun. Methods 36:109-117, 1980), to HUVEC isolated from umbilical cords was carried out essentially as described (Huang et al, 1997 supra).\nThe magnitude of the suppressive effect of -MP3 was dependent on-pre-treatment time and concentration with significant effects observed with a pre-treatment time of 1 hr and a concentration of ≧5 μmol/l."}, "PKCε": {"target": "T4, PKCε (Homo sapiens, UniProt Q02156)", "T4 construct": "endogenous in cells; host or cells: Jurkat", "T4 sequence (Q02156 whole entry)": "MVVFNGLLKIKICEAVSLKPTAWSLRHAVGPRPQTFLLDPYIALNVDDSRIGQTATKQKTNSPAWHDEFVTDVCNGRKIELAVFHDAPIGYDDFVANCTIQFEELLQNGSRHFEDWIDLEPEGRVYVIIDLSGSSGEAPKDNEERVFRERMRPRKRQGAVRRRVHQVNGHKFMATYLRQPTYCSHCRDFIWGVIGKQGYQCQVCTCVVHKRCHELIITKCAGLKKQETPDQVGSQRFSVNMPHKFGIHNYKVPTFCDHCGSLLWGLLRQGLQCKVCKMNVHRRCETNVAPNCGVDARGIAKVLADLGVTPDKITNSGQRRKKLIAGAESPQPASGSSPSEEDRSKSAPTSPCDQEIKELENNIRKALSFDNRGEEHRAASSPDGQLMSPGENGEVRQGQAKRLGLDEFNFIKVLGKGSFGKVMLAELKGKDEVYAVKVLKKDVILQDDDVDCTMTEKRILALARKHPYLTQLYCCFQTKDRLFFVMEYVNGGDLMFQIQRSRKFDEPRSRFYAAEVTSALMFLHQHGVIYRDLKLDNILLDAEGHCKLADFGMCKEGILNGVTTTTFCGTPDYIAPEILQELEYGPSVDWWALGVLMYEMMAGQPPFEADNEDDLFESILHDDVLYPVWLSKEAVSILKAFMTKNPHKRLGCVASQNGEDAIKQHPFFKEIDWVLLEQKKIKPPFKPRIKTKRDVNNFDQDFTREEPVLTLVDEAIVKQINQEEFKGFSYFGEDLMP", "assay": "PKC translocation in Jurkat cells", "assay_type": "cell-based", "source_text": "as §2"}, "other PKC isozymes": {"system": "other PKC isozymes", "assay": "PKC translocation in Jurkat cells", "assay_type": "cell-based", "source_text": "as §2"}, "[4]": {"assay": "Long term in vivo tolerability of MP5", "parameters": "species or system rats", "settings": "up to 100 mg/kg", "experimental": "as §2\nThe ability of MP5 to inhibit renal TGFβ production and albuminuria in streptozotocin-induced diabetic Sprague-Dawley rats were investigated. MP5 is non toxic to rats given at up to 100 mg/kg chronically as determined by liver and kidney biochemical and electrolyte markers. […] Animals (130-150 g) were placed randomly in one of five groups: control, MP5-treated, diabetic, diabetic+MP5 and diabetic+MP1. Power analysis ([…], β=0.1) (expecting at least a 50% reduction and an SD of 30% of mean) indicate that 7-8 animals/group were needed. The rats were rendered diabetic using streptozotocin (65 mg/kg. I.P) and blood glucose levels were measured 48 hr later to confirm the onset of diabetes (glucose>15 mM). […] Blood glucose was measured every week. […] At the end of the MP5 treatment period, rats were sacrificed and the level of TGFβ mRNA (Kikkawa et al 1994 supra) in the glomeruli were determined by slot blot analysis (Ferrante et al, 1997 supra) and normalized by comparison with the level of GAPDH (glyceraldehyde 3-phosphate dehydrogenase) mRNA in the same sample (Ferrante et al, 1997 supra). The amount of albumin in the urine were measured by using a commercial kit (EXOCELL Inc. Philadelphia, Pa.). […]"}, "[5]": {"assay": "Tissue distribution after oral administration", "assay_type": "in vivo"}, "PKCβI [6]": {"system": "PKCβI", "assay": "PKCβ1 translocation in glucose-stimulated mesangial cells (Western blot)", "assay_type": "cell-based", "settings": "1 hr pre-treatment, 25 mM glucose 5 days", "experimental": "as §1\nMesangial cells are prepared as previously described (Couper et al, 1994 supra).\nFour groups of cells were set up: 5.5 mM glucose+ethanol (0.1% w/v or v/v), 5.5 mM glucose+MP5 (20 μM which is effective in the studies), 25 mM glucose+ethanol and 25 mM glucose+MP5. […] Cells were pre-incubated (30 min-24 h) with MP5 before being challenged with glucose for 4 days. […] Cells are then be washed, sonicated and the amount of each PKC isozyme in the particulate fraction determined by Western blot analysis. The soluble fractions were kept for estimation of soluble PKC (non-particulate fraction-associated). […] The cells remained viable throughout the period of study as judged by the trypan blue exclusion test. […]"}, "[7]": {"settings": "100 mg/kg ip, 30 min prior to formalin, mean of 5 animals"}},
  "note": "“Also recorded” adds a separate entry of the source.",
  "data": [
    {"compound": "CC/C=C\\C/C=C\\C/C=C\\CCCCCCCCOCC(=O)O", "note": "[MP5, β-oxa-21:3n-3]", "values": [
      {"measurement": "Translocation of PKCβI to a particulate fraction, glomeruli of diabetic rats", "setting": "PKCβI [1]", "result": "prevent the translocation of PKCβI; also recorded: inhibited this effect"},
      {"measurement": "PMA-stimulated translocation of PKCβI to the particulate fraction", "setting": "PKCβI [2]; HUVEC and other cell-types", "result": "inhibited PMA-stimulated translocation"},
      {"measurement": "Selectivity between PKCβI and PKCβII", "setting": "PKCβI [2]; HUVEC, depending on the concentrations used", "result": "able to distinguish between PKCβI and PKCβII"},
      {"measurement": "PMA-stimulated translocation of PKCβII to the particulate fraction", "setting": "PKCβII", "result": "inhibited PMA-stimulated translocation"},
      {"measurement": "% inhibition of pain response, Phase I (0-5 mins)", "setting": "[3]; [7]", "result": 34, "unit": "%"},
      {"measurement": "% inhibition of pain response, Phase II (15-20 mins)", "setting": "[3]; [7]", "result": 37, "unit": "%"},
      {"measurement": "Pain reduction in formalin test", "setting": "[3]; intraperitoneal, 30 min before pain stimulus", "result": "much less effective in inhibiting pain"},
      {"measurement": "Inhibition of TNF-α-enhanced neutrophil adhesion to HUVEC", "setting": "HUVEC", "result": "inhibited their ability to be stimulated"},
      {"measurement": "Effect on PKCε translocation", "setting": "PKCε", "result": "< 15", "unit": "%"},
      {"measurement": "Effect on translocation of the other PKC isozymes", "setting": "other PKC isozymes", "result": "no effects"},
      {"measurement": "Liver and kidney function and electrolyte levels", "setting": "[4]; chronic", "result": "no adverse effects on liver and kidney function and electrolyte levels; also recorded: non toxic"},
      {"measurement": "Well-being of the animals (coat appearance, activity/mobility)", "setting": "[4]; up to three months", "result": "no visible adverse effects"},
      {"measurement": "Presence in blood, organs and tissues after oral administration", "setting": "[5]", "result": "present in the blood and various organs; also recorded: taken up by tissues, including kidneys, and incorporated into phospholipids"},
      {"measurement": "Translocation of PKCβI to a particulate fraction, glucose-stimulated mesangial cells", "setting": "PKCβI [6]", "result": "prevent the translocation of PKCβI; also recorded: inhibited this effect"}
    ]}
  ]
}
